Experiment: Dispersion test, USP apparatus II (paddle method), 0.45 μm filtration and HPLC
Assay type: physicochemical
Details: 0.45 μm pore size filter
Procedure: Dispersion tests were then run on each of the dosage forms using USP apparatus II (the paddle method). Dried samples corresponding to 20 mg of the lyophilized powder were weighed and mixed with 2% SLS and placed into 250 mL of dissolution media with a holding temperature at 37±0.5° C. The rotation speed of the paddle was set to 50 rpm. The dispersion test was performed in two steps: stimulated gastric fluid (pH 1.2) for up to 120 minutes, and changing the pH to pH 6.8 after that by adding 1N NaOH. This is to mimic the gastrointestinal pH conditions. Aliquots of the suspension were taken after 1, 3, 5, 10, 15, 30, 60, 120, 150, and 180 minutes. The aliquots were then filtered through a hydrophilic PTFE membrane filter with 0.45 μm pore size, diluted appropriately with an organic solvent to dissolve drug particles and analyzed for drug content by HPLC.
Dispersion tests were also performed on capsules and tablets of the lyophilized powder.

Compound: CC(C)(Sc1cc(C(C)(C)C)c(O)c(C(C)(C)C)c1)Sc1cc(C(C)(C)C)c(O)c(C(C)(C)C)c1 [neat probucol powder, probucol]
- drug dispersion (result in words): did not demonstrate any drug dispersion

From patent publication US10166197B2, “Sugar ester nanoparticle stabilizers” (St. John's University, priority 2015, dated 2019)
